“Also recorded” adds a separate entry of the source. Starred links: 1 amine or outer side, 2 acyl side, 3 side chain; linkers in the order of their positions; H or OH if unused. Non-standard residues stand in square brackets, D forms with d. Residues, ends and D or L forms follow the SMILES beside them. *: point of attachment. Paclitaxel(2'-OCO-DMEDA) = CC(=O)O[C@H]1C(=O)[C@@]2(C)[C@H]([C@H](OC(=O)c3ccccc3)[C@]3(O)C[C@H](OC(=O)[C@H](OC(=O)N(C)CCN(C)*)[C@@H](NC(=O)c4ccccc4)c4ccccc4)C(C)=C1C3(C)C)[C@]1(OC(C)=O)CO[C@@H]1C[C@@H]2O; Dolaproine = CO[C@@H]([C@@H]1CCCN1)[C@@H](C)C(=O)O; Dil = CC[C@H](C)[C@H](NC)[C@@H](CC(=O)O)OC; Fmoc = O=C(OCC1c2ccccc2-c2ccccc21)*; PABC = O=C(OCc1ccc(N[*:1])cc1)[*:2]; X1 = C[C@@H](N*)[C@@H](O)c1ccccc1; NMeV = CN[C@H](C(=O)O)C(C)C
Tests used:
[1] = rat plasma (Strain: Sprague Dawley; Innovative Research); conditions: 37 °C, up to 4 hours
[2] = test system: Cathepsin B (SigmaAldrich C6286); assay: bovine spleen Cathepsin B in 20 mM NaOAc, 1 mM EDTA, pH 5.4, activated with L-cysteine; conditions: 37 °C, up to 24 h
[3] = test system: bovine spleen Cathepsin B (SigmaAldrich C6286, ≥10 units/mg protein); assay: activated Cathepsin B (1.12 u/mL) in 20 mM NaOAc, 1 mM EDTA, pH 5.4, with L-cysteine; conditions: 37 °C, up to 24 h
[4] = human plasma (Pooled; Innovative Research); conditions: 37 °C, up to 4 hours
[5] = rat liver S9 fraction (male, pooled, Xeno-tech); conditions: 37 °C, up to 90 minutes
[6] = human liver S9 fraction (male, pooled, Xeno-tech); conditions: 37 °C, up to 90 minutes
[7] = test system: U87MG cancer cell lines; set-up: method as in PMID 37492088; conditions: short-contact time antiproliferative assay; earlier work of the authors; read-out: IC50 against U87MG cancer cell lines; cited from earlier work

Compound	not cleaved [1]	fragment found [2]	fragment found [3]	not cleaved [4]	not cleaved [5]	not cleaved [6]	cleaved bond [3]	not cleaved [3]	IC50 [7] [µM]
Fmoc-VCit-PABC-diamine-PTX	118.1% remaining at 240 min	PABC-diamine-PTX (fragment I)	PABC-diamine-PTX (fragment I); also recorded: diamine-PTX (fragment II)						
Fmoc-GPLG-PABC-diamine-PTX	100% of residual compound after 4 h (Table S7: 103.0% at 240 min)		diamine-PTX (fragment II), 2 min; also recorded: free PTX, 24 h	100% of residual compound after 4 h (Table S7: 112.1% at 240 min)	more than 94% intact after 1.5 h (Table S7: 94.464% at 90 min)	more than 94% intact after 1.5 h (Table S7: 94.986% at 90 min)	Gly-PABC, first_seen, 2 min	no cleavage between Gly and Pro residues was observed throughout the experiment time	
Fmoc-GFLG-PABC-diamine-PTX (Fmoc-GFLG[PABC]-{Paclitaxel(2'-OCO-DMEDA)}; SMILES CC(=O)O[C@H]1C(=O)[C@@]2(C)[C@H]([C@H](OC(=O)c3ccccc3)[C@]3(O)C[C@H](OC(=O)[C@H](OC(=O)N(C)CCN(C)C(=O)OCc4ccc(NC(=O)CNC(=O)[C@H](CC(C)C)NC(=O)[C@H](Cc5ccccc5)NC(=O)CNC(=O)OCC5c6ccccc6-c6ccccc65)cc4)[C@@H](NC(=O)c4ccccc4)c4ccccc4)C(C)=C1C3(C)C)[C@]1(OC(C)=O)CO[C@@H]1C[C@@H]2O)	103.3% remaining at 240 min		diamine-PTX (fragment II)	93.9% remaining at 240 min		95.232% remaining at 90 min	Gly-Phe, 2 min; also recorded: Gly-PABC		
CC[C@H](C)[C@@H]([C@@H](CC(=O)N1CCC[C@H]1[C@H](OC)[C@@H](C)C(=O)N[C@H](C)[C@@H](O)c1ccccc1)OC)N(C)C(=O)[C@@H](NC(=O)[C@@H](NC)C(C)C)C(C)C [MMAE, monomethyl auristatin E] (H-[NMeV]V[Dil][Dolaproine]-X1)									2.13
Fmoc-VA-PABC-diamine-PTX	108.0% remaining at 240 min	PABC-diamine-PTX (fragment I)	PABC-diamine-PTX (fragment I); also recorded: diamine-PTX (fragment II)	107.1% remaining at 240 min					

— PMC12444563 (ACS Omega, 2025)
